Measured values as given in publication PMC12133574 (Nature Immunology, 2025).
Read-outs that look alike come from different tables or passages of the source.

How the values were obtained:
[1] = system: activated human T cells (proliferation); assay: cells; format: cell-based; settings: for EC50: Homo sapiens, T-cell; for effect of the substance on T cell proliferation: activated human T cells; for restoration of adenosine-mediated inhibition of T cell proliferation: uridine, cytidine all 30 µM
[2] = system: pyrimidine and purine metabolites in activated human T cells; format: cell-based; settings: 24 h; for levels of UMP, UDP, UTP and CTP (metabolites downstream of UMPS) / levels of carbamoyl aspartate, DHO and orotate: adenosine-exposed activated human T cells
[3] = system: activated human T cells (viability); format: cell-based; settings: for effect of the substance on T cell viability: activated human T cells
[4] = system: NLVPMVATV-specific CD8^+ T cells in PBMCs; assay: CMV pp65 antigen recall assay, tetramer staining; format: cell-based, human; settings: in the presence of ATP (300 µM); EOS301984 300 nM, anti-PD-1 10 µg ml^-1; representative donor
[5] = system: NLVPMVATV peptide-pulsed T2 cells; assay: Antigen-specific cell killing assay; format: cell-based, human
[6] = system: TNF production by activated human T cells; format: cell-based
[7] = system: PD-1^+TIM-3^+CD39^+ CD8^+ TILs from NSCLC; format: cell-based, human; settings: ex vivo stimulated PD-1^+TIM-3^+CD39^+ CD8^+ T cells, adenosine 100 µM, EOS301984 300 nM
[8] = system: IFNγ production by activated human T cells; format: cell-based
[9] = system: mitochondrial respiration of activated human T cells; format: cell-based
activated human T cells = assay: [3H]adenosine uptake assay; format: cell-based; settings: dilazep 1 µM, one value per donor
[10] = in the presence of 100 µM adenosine, 72 h activation

Compound: Nc1ncnc2nc(-c3ccc(N4CCOCC4)nc3)cc(-c3cccc(Br)c3)c12 [ABT-702, 4-amino-5-(3-bromophenyl)-7-(6-morpholino-pyridin-3-yl)pyrido[2,3-d]pyrimidine, reference compound]
- EC50 ([1]; read-out: EC50, rescue of activated CD8^+ T cell proliferation): 23.8 nM
- levels of UMP, UDP, UTP and CTP (metabolites downstream of UMPS) [2]: restored pyrimidine metabolism

Compound: Nc1ncnc2c1ncn2[C@@H]1O[C@H](COP(=O)(O)OP(=O)(O)OP(=O)(O)O)[C@@H](O)[C@H]1O [ATP]
- effect of the substance on T cell proliferation [1]: suppressed
- effect of the substance on T cell viability [3]: suppressed
- Tet^+ of CD8^+ T cells [4]: profound suppression
- antigen-specific killing by the PBMC population ([5]; ATP present during the expansion phase): reduced
- effect of the substance on TNF production [6]: suppressed

Compound: Nc1ncnc2c1ncn2[C@@H]1O[C@H](CO)[C@@H](O)[C@H]1O [Adenosine, adenosine]
- effect of the substance on T cell proliferation [1]: inhibited
- levels of UMP, UDP, UTP and CTP (metabolites downstream of UMPS) [2]: dose-dependently depleted
- levels of carbamoyl aspartate, DHO and orotate [2]: increase
- levels of adenosine metabolites (purines) ([2]; adenosine-treated versus DMSO-treated T cells): Dose-dependent increases
- fraction of cells producing IFNγ and granzyme B [7]: suppressed
- effect of the substance on IFNγ production ([8]; activated human T cells): inhibited
- mitochondrial respiration (OCR) [9]: reduced
- effect of the substance on T cell viability [3]: loss of viability
- effect of the substance on TNF production [6]: inhibited

Compound: COc1cc(C(=O)OCCCN2CCCN(CCCOC(=O)c3cc(OC)c(OC)c(OC)c3)CC2)cc(OC)c1OC [Dilazep, dilazep, reference compound]
- restoration of T cell proliferation [1, 10]: restored
- levels of UMP, UDP, UTP and CTP (metabolites downstream of UMPS) [2]: increased
- levels of carbamoyl aspartate, DHO and orotate [2]: reduced
- IFNγ production ([8]; in the presence of 100 µM adenosine): restored
- [3H]adenosine uptake (activated human T cells): reduced
- restoration of T cell viability [3, 10]: restored

Compound: O=c1ccn([C@@H]2O[C@H](CO)[C@@H](O)[C@H]2O)c(=O)[nH]1 [Uridine, uridine]
- EC50 ([1]; read-out: EC50, rescue of T cell proliferation): 1100 nM
- effect of the substance on T cell proliferation [1]: did not suppress
- restoration of adenosine-mediated inhibition of T cell proliferation [1]: restored
- levels of UMP, UDP, UTP and CTP (metabolites downstream of UMPS) [2]: normalized pyrimidine levels

Compound: Nc1ccn([C@@H]2O[C@H](CO)[C@@H](O)[C@H]2O)c(=O)n1 [cytidine]
- effect of the substance on T cell proliferation [1]: did not suppress
- restoration of adenosine-mediated inhibition of T cell proliferation [1]: not observed

Compound: Anti-PD-1: anti-PD-1 antibody OPDIVO (nivolumab), Bristol-Myers Squibb [reference compound]
- antigen-specific killing by the PBMC population ([5]; in the absence of ATP): did not have a clear effect
